Assay results: patent publication US7709538B2 (Sagittarius Life Science Corp., priority 2004, dated 2010)
Where “and” joins values, the source holds several entries; their conditions need not be identical. Equal entries are not always repeated. Entries after “also recorded” stand apart in the source; their conditions may differ. Marks after values point to notes of the source that are not given here.

Assays:
[1] = tested on: bFGF-induced angiogenesis in rat corneas; test: Corneal angiogenesis, implanted hydron pellets; type: in vivo; settings: pellets with bFGF 100 ng, alone or plus ST104P 500 ng, day 7
Description: FIG. 8. […] The asterisk represents the place of hydron pellet implantation. (B) The neovascularization in rat corneas after implantation bFGF hydron pellets or pellets containing bFGF and ST104P. The length (panel a) and area (panel b) of neovascularized vessels in rat corneas were measured after implantation for 3-7 days. Data are means±SEM (n=8 per group). *P<0.01.
(§1) All rats were handled in accordance with the Association for Research in Vision and Ophthalmology Resolution on the Use of Animals in Research. Male Sprague-Dawley rats (300-350 g, Animal Center, National Science Counsel, Taipei, Taiwan) were used in this study. All surgical procedures were performed using sterile techniques. The rats were placed under anesthesia with 3% isoflurane in an O2/room air mixture (1:1). Additional topical anesthesia (0.4% benoxinate hydrochloride, Ciba Vision Ltd., Hettlingen, Switzerland) was applied to the corneal surface. The eyes were exposed by grasping the temporal limboconjunctiva using a jeweler's forceps and the central-peripheral corneal intrastromal lamellar pocket (0.6×1.5×1 mm for depth×length×width) was dissected with a surgical blade (Paragon no. 11; Maersk Medical LTD, Sheffield, England). The pockets were extended 1.5 to 2 mm away from the limbus. The pellet was grasped by smooth forceps from the refrigerator (−20° C.) and immediately implanted into the corneal stromal pocket in each eye. Topical antibiotic ointment (0.3% gentamycin; Alcon Cusi, Spain) was applied to the corneal surface to reduce irritation and prevent infection.
Implanting Hydron Pellets
(§2) Biomicroscopic Examination
(§3) Examinations were made with a dissecting microscope and results were photographed on days 3, 5 and 7. Under anesthesia, the maximum vessel length and width of the neovascularization in rat eyes were measured and calibrated using a microscale (Nikon, Tokyo, Japan). The area of neovascularization of the cornea was determined from the dimensions of the triangular growth pattern of the vessels. Photographs of the corneal angiogenesis assay were obtained and digitized in a 640×480 pixel matrix, using a digital camera CoolPix 995 (Nikon, Tokyo, Japan). The operator was blinded to experimental design. Areas containing blood vessels were traced on the computer monitor and calculated with image analysis software (Scion Image 4.02; Scion, Maryland, USA) and reported in square millimeters with determinations. The biomicroscopic assessment was conducted by two independent observers.
(§4) To analyze the differences between groups, Mann-Whitney U test analysis with two-tailed probability was used and a P value of less than 0.05 was considered significant. Results are presented as means±SEM (standard error of the mean). For each experiment, surgery was performed on all animals in a standardized fashion, and animals were randomized to the different treatment and control groups.

[2] = tested on: EA.hy926 cells; test: Tube formation assay in Matrigel; type: cell-based, Human; settings: ST104P 20-100 μg/ml
[3] = tested on: BAEC; settings: incubation 6 h, bFGF 100 ng/ml
Description: (§5) FIG. 2. […] After trypsinization, endothelial cells were applied to top wells in Boyden chamber to initiated migration toward chemoattractant bFGF (100 ng/ml) in the bottom wells. The migrated cells on filter were stained and counted. Each point represents mean±SEM of triplicate experiments.
(§6) The compartments were separated by a polycarbonate filter (8-μm pore size; Nucleopore, Costar, Cambridge, Mass.) coated with 0.005% gelatin to allow cell adhesion. After incubation for 2-4 h in a humidified 5% CO2 atmosphere at 37° C., cells on the upper side of the filter were removed, and those that had migrated to the lower side were fixed in absolute ethanol, stained with 10% Giemsa solution (Merck, Germany), and counted as a mean±SD per filter under five different high power fields.

[4] = tested on: EA.hy926; settings: EA.hy926, incubation 6 h, bFGF 100 ng/ml
Description: as §5, §6

[5] = Tolerability in animals via various routes (data not shown); type: in vivo; settings: oral or intravenous, intraperitoneal, and intratumor injection
[6] = tested on: bFGF-induced angiogenesis in rat corneas; test: Corneal angiogenesis, implanted hydron pellets; type: in vivo; settings: for Area (mm^2) of neovascularization / Length (mm) of new vessels: day 7
[7] = tested on: bFGF-induced corneal angiogenesis; test: Corneal angiogenesis, topical application of eye drops; type: in vivo
Description: FIG. 9. […] (A) Representative photographs of basic fibroblast growth factor (bFGF)-implanted corneas after topical application of control (phosphate buffered saline, PBS) eye drop (left panel) and ST104P-containing eye drop (50 μg/ml, middle panel; 100 μg/ml, right panel) for 7 days. The asterisk represents the place of hydron pellet implantation. […] Data represent mean±SEM (n=8 per group).
FIG. 10. Histological analysis of basic fibroblast growth factor (bFGF)-implanted rat cornea after ST104P eye drop treatment. After eye drop treatment for 7 days, the bFGF-implanted rat corneas were harvested and stained with hematoxylin and eosin (200×). […] Neocapillaries (arrowheads) are prominent in the corneal stroma.
as §1
Topical Application of ST104P
as §2, §3
After treatment, the rat corneas were dissected and fixed in […]. The […]-embedded tissues were sectioned in 5-μm slices, mounted on poly-L-lysine-coated slides and subjected to hematoxylin and eosin staining.
as §4

[8] = tested on: Lewis lung carcinoma; test: Treatment of Lewis lung carcinoma in mice; type: in vivo
Description: FIG. 6. […] The subcutaneous dorsa of mice were implanted with Lewis lung carcinomas. […] Each point represents mean±SEM for ten mice.
FIG. 7. […] The subcutaneous dorsa of mice were implanted with Lewis lung carcinomas. […] Each point represents mean±SEM for ten mice.
Animal study was carried out in the animal facility of Kaohsiung Veterans General Hospital in accordance with institutional guidelines. Male C57BL/6J mice (6- to 8-week-old; Animal Center of National Cheng Kung University, Taiwan) were used. Mice were acclimated and caged in groups of four or less. All mice were fed with a diet of animal chow and water ad libitum. Animals were anesthetized in a methoxyflurane chamber prior to all procedures and were observed until fully recovered. Animals were sacrificed by a lethal dose of methoxyflurane.
Treatment of Lewis Lung Carcinoma
C57BL/6J mice were implanted with Lewis lung carcinomas cells using the techniques described previously (O'Reilly et al., Cell 88, 277-285, 1997). Briefly, the LL2 Lewis lung carcinoma cells were resuspended in PBS at the concentration of 2.5×10^6 cells per ml and injected into C57B16/J mice (n=20) with 0.1 ml of the cell suspension to induce tumor. Tumors were measured with a dial-caliper and volumes were determined using the formula width^2×length×0.52. […] In addition, the survival rate of mice in different groups was recorded and analyzed by Kaplan-Mier Survival analysis.

[9] = tested on: BAEC; test: Tube formation assay in Matrigel; type: cell-based, Bovine; settings: ST104P 20-100 μg/ml
Description: FIG. 3. ST104P abolished the tube formation of endothelial cells. […] Endothelial cells were applied to Matrigel-coated plate in the absence or presence of ST104P. After 8 h, the tubular structures of BAEC cells were monitored and recorded under light microscopy. The pictures were taken at 400× magnification.
Matrigel (Becton Dickinson; Bedford, Mass.) was diluted with cold serum-free medium to 10 mg/ml. Two hundred μl of the diluted solution were added to each well in 24-well plate and allowed to form a gel at 37° C. for 30 min. […] Two hundred μl of the cell suspension (3×10^4 cells) were then subsequently added to each well and incubated for 6-8 h at 37° C. in 5% CO2. Under these conditions endothelial cells form delicate networks of tubes that are detectable within 2-3 h and are fully developed after 8-12 h.

[10] = tested on: BAEC, HUVEC, EA.hy926 cells, 3T3 cells, GH3 cells, C6 cells, HepG2 cells, SK-Hep-1 cells, MDCK cells; test: Morphological analysis of endothelial and non-endothelial cells; type: cell-based; settings: all types of cells tested; data not shown
From the text: (§7) FIG. 1. […] The pictures were taken at 400× magnification. […] Each data represent mean±SD of quadruplicate experiments. Asterisks indicated statistic significance versus control (P<0.001).

[11] = tested on: neovascularization in chicken embryos (CAM); test: Chorioallantoic membrane (CAM) assay
Description: The angiogenesis profiles on CAMs were recorded under dissection microscope.
Chorioallantoic Membrane (CAM) Assay
Briefly, fertilized White Leghorn chicken eggs were purchased from Taiwan Provincial Research Institute for Animal Health (Hsin-Chu, Taiwan) and incubated at 37° C. with 60% humidity. On day 3, a square window was opened in the shell, and 2 to 3 ml of albumen was removed to allow detachment of the developing CAM. The window was sealed with a glass, and the eggs were returned to the incubator. […] The CAMs were examined daily until day 10-12, when the angiogenic response peaks, and photographed in ovo with a stereomicroscope equipped with Zeiss MC63 camera system (Zeiss, Oberkochen, Germany). The experiments were carried out using 10 eggs per group.

[12] = Water solubility; type: physicochemical
[13] = tested on: different types of cells; test: Cell proliferation assay, different types of cells; type: cell-based; settings: dose-dependent, 10-500 μg/ml, 48 h
From the text: as §7

[14] = tested on: secretion of MMP-2 by endothelial cells; test: MMPs gelatin zymography of conditioned media of endothelial cells; type: cell-based; settings: endothelial cells (BAEC, EA.hy926), even at dose as low as 10 μg/ml, 24 h
Description: (§8) Matrix Metalloproteinases (MMPs) Zymography
(§9) Secretion of MMPs by endothelial cells was assessed by 0.1% gelatin-SDS-PAGE zymography. Briefly, endothelial cells near 80% confluence were washed twice with serum-free media and treated with various doses of vasostatin for 24-48 h. Conditioned media were collected and assayed for protein concentration by Bradford assay. Aliquots of conditioned media were subjected to separation with 10% SDS-PAGE containing 0.1% type A gelatin (Sigma; St. Louis, Mo.). After electrophoresis, gel was washed twice with 2.5% Triton X-100, incubated in buffer containing 40 mM Tris-HCl, pH […], 0.01% sodium azide at 37° C. for 12-24 h, stained with 0.25% Coomassie Blue R-250 in 50% methanol and 10% acetic acid for 1 h, and destained with 10% acetic acid, 20% methanol. The gelatinolytic regions by MMPs were visualized as white bands in blue background.

[15] = tested on: secretion of MMP-9 by endothelial cells; test: as above; type: cell-based; settings: endothelial cells (BAEC, EA.hy926), even at dose as low as 10 μg/ml, 24 h
Description: as §8, §9

[16] = ST104P 500 ng pellet without bFGF
[17] = ST104P 1000 ng pellet without bFGF

bFGF: Recombinant basic fibroblast growth factor, used as chemoattractant and as inducer of corneal angiogenesis in hydron pellets [reference compound]
Area (mm^2) of neovascularization [1]: 1.42±0.28 mm^2 | Length (mm) of new vessels [1]: 1.36±0.4 mm and 1.36 ± 0.40 mm

tetrameric cyclic compound of 4,5-dihydroxynaphthalene-2, 7, disulfonic acid linked by methylene bridges [ST104P]
vessel-like (tube) structure in Matrigel [2]: effectively abolished | IC50, migration toward chemoattractant bFGF [3]: 100 µg/mL | IC50, migration toward chemoattractant bFGF [4]: 100 µg/mL | Area (mm^2) of neovascularization ([1]; listed as bFGF + ST104P): 0.12 ± 0.11* mm^2 | Length (mm) of new vessels ([1]; listed as bFGF + ST104P): 0.17 ± 0.06* mm | Area (mm^2) of neovascularization ([1]; listed as bFGF plus ST104P): 0.12±0.11 mm^2 | Length (mm) of new vessels ([1]; listed as bFGF plus ST104P): 0.17±0.06 mm | tolerability in animals [5]: well tolerated | Area (mm^2) of neovascularization [6, 16]: 0 mm^2 | Length (mm) of new vessels [6, 16]: 0 mm | Area (mm^2) of neovascularization [6, 17]: 0 mm^2 | Length (mm) of new vessels [6, 17]: 0 mm | induction of neovascularization by pellets without bFGF ([6]; ST104P pellets alone in rat corneas): did not induce neovascularization | average vessel length ([7]; ST104P eye drop 100 μg/ml three times daily, day 7, PBS eye drop 1.36±0.4, P<0.01): 0.39±0.15 mm | neovascularized area ([7]; ST104P eye drop 100 μg/ml three times daily, day 7, PBS eye drop 1.42±0.28, P<0.01): 0.28±0.19 mm^2 | effect on bFGF-induced cornea angiogenesis ([7]; ST104P eye drop 10-20 μg/ml): did not elicit inhibitory effect | neovascularization by histological analysis ([7]; ST104P eye drops 50 and 100 μg/ml, 7 days, hematoxylin and eosin): no significant neovascularization | toxicity to the cornea / other eye cells by histological analysis ([7]; ST104P eye drops, 7 days): appears normal histologically without apparent adverse effects; also recorded: without overt cytotoxicity | weight loss or adverse effects in treated mice ([8]; ST104P 100 μg injection): no evident weight loss or adverse effects | decrease of tumor size versus saline-treated group ([8]; ST104P 100 μg injection, four times): ~40% | average tumor size ([8]; ST104P 100 μg injection, four times, saline group 4876±670, P<0.05): 2620±320 mm^3 | survival of tumor-bearing mice ([8]; ST104P 100 μg, versus vehicle, Kaplan-Meier): significantly enhanced the survival rates; also recorded: survived significantly longer | vessel-like (tube) structure in Matrigel [9]: effectively abolished | cytotoxicity by morphological analysis [10]: not very toxic | inhibition of angiogenesis in CAM ([11]; 50 μg per CAM, 8-day old chick embryos): 50% | mortality of chick embryos ([11]; 200 μg per CAM, 9 out of 10 died): 90% | water solubility [12]: excellent water solubility | proliferation in different types of cells [13]: moderately inhibited the proliferation | secretion of MMP-2 [14]: potently inhibited | secretion of MMP-9 [15]: potently inhibited
